Laboratory results: US7115749B2, “Substituted 5-oxo pyrazoles and [1,2,4]triazoles as antiviral agents” (priority 2004, dated 2006)

Target: HCV RNA-dependent RNA polymerase NS5B (Δ21) (Hepatitis C virus genotype 1b, UniProt P26663)
Assay: Assay for HCV RNA-dependent RNA polymerase activity (SPA, [3H]-GTP incorporation)
Assay type: biochemical
Protocol: Assay for HCV RNA-dependent RNA Polymerase Activity
Inhibitory activity of the present compounds against HCV RNA-dependent RNA polymerase was assayed according to the methods disclosed in U.S. Patent Application U.S.2004/038993, content of which is incorporated herein by reference; and those described in Ferrari, E.; Wright-Minogue, J.; Fang, J. W. S.; Baroudy, B. M.; Lau, J. Y. N.; Hong, Z. J. Virol. 1999, 73, 1649.
Briefly, 50 μl reactions containing 20 mM HEPES (pH 7.3), 7.5 mM DTT, 20 units/ml RNasIN, 0.5 ug/ml biotinylated oligoG12, 5 μg/ml polyC, 5 μM GTP, 20 μCi/ml [^3H]-GTP, 10 mM MgCl2, 60 mM NaCl, 100 μg/ml BSA, and 50 nM NS5B (Δ21) were incubated at room temperature for three hours in 96-well plates with or without test compounds. Assay was terminated by the addition of 50 μl 10 mg/ml streptavidin-coated SPA beads supplemented with 100 mM EDTA, and the incorporation of labeled GTP determined by a TopCount Scintillation Counter. IC50 values were calculated from single experiments using 11 serial 2-fold dilutions (0.05–50 μM), and data were considered reliable only when the IC50 value of a positive internal control was within standard deviation range.

Chain of HCV RNA-dependent RNA polymerase NS5B (Δ21) (P26663 2420-2989, stated change not applied): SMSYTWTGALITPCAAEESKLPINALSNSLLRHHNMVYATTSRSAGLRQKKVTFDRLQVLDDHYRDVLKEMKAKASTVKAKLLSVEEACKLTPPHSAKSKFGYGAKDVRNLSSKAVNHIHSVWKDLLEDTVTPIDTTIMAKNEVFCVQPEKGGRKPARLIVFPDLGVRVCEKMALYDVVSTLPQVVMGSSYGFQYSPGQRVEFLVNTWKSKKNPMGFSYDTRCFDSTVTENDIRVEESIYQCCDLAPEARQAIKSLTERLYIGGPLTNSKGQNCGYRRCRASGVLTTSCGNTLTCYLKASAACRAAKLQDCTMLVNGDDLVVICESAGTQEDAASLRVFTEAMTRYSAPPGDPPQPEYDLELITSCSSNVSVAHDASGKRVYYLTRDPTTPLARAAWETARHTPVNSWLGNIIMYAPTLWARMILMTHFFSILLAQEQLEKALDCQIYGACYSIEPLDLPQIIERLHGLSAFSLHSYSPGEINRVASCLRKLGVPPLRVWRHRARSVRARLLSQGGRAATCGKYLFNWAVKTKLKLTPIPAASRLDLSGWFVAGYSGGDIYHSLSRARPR

Row | SMILES | IC50 [µM]
1 | CS(=O)(=O)c1cccc(-c2ccccc2COc2cc(C(=O)O)nn2CC(=O)N[C@H]2CCCC[C@@H]2OCc2ccccc2)c1 [Compound 51] | 22
2 | CS(=O)(=O)c1ccc(-c2ccccc2COc2cc(C(=O)O)nn2CC(=O)N[C@H]2CCCC[C@@H]2OCc2ccccc2)cc1 [Compound 52] | 9.2
3 | O=C(Cn1nc(C(=O)O)cc1OCc1ccccc1-c1cccc(Cl)c1)N[C@H]1CCCC[C@@H]1OCc1ccccc1 [Compound 53] | 0.78
4 | O=C(Cn1nc(C(=O)O)cc1OCc1ccccc1-c1ccccc1Cl)N[C@H]1CCCC[C@@H]1OCc1ccccc1 [Compound 54] | 2.6
5 | O=C(Cn1nc(C(=O)O)cc1OCc1ccccc1-c1cccc(C(=O)O)c1)N[C@H]1CCCC[C@@H]1OCc1ccccc1 [Compound 55] | > 12.5
6 | O=C(Cn1nc(C(=O)O)cc1OCc1ccccc1-c1ccc(C(=O)O)cc1)N[C@H]1CCCC[C@@H]1OCc1ccccc1 [Compound 56] | > 12.5
7 | O=C(Cn1nc(C(=O)O)cc1OCc1ccccc1-c1cccs1)N[C@H]1CCCC[C@@H]1OCc1ccccc1 [Compound 57] | 2.1
8 | O=C(Cn1nc(C(=O)O)cc1OCc1ccccc1-c1ccsc1)N[C@H]1CCCC[C@@H]1OCc1ccccc1 [Compound 58, 1-[(2-benzyloxy-cyclohexylcarbamoyl)-methyl]-5-(2-thiophen-3-yl-benzyloxy)-1H-pyrazole-3-carboxylic acid] | 0.75
9 | CC(C)(C)COc1cc(C(=O)O)nn1CC(=O)N[C@H]1CCCC[C@@H]1OCc1ccccc1 [Compound 59] | > 12.5
10 | CC(C)COc1cc(C(=O)O)nn1CC(=O)N[C@H]1CCCC[C@@H]1OCc1ccccc1 [Compound 60] | > 50
11 | O=C(Cn1nc(C(=O)O)cc1OCc1ccccc1I)N[C@H]1CCCC[C@@H]1OCc1ccccc1 [Compound 61] | 6.5
12 | Nc1nc2ccc(CNC(=O)Cn3nc(C(=O)O)cc3OCc3ccccc3-c3ccc(C(F)(F)F)cc3)cc2s1 [Compound 62] | > 12.5
13 | O=C(Cn1nc(C(=O)O)cc1OCc1ccccc1-c1ccc(C(F)(F)F)cc1)NCCCc1ccccc1 [Compound 63] | 12
14 | O=C(Cn1nc(C(=O)O)cc1OCc1ccsc1)N[C@H]1CCCC[C@@H]1OCc1ccccc1 [Compound 64] | > 12.5
15 | O=C(Cn1nc(C(=O)O)cc1OCc1cccnc1)N[C@H]1CCCC[C@@H]1OCc1ccccc1 [Compound 65, 1-[(2-benzyloxy-cyclohexylcarbamoyl)-methyl]-5-(pyridin-3-ylmethoxy)-1H-pyrazole-3-carboxylic acid] | > 12.5
16 | O=C(Cn1nc(-c2nnn[nH]2)cc1OCc1ccccc1-c1ccc(C(F)(F)F)cc1)N[C@H]1CCCC[C@@H]1OCc1ccccc1 [Compound 66, N-(2-benzyloxy-cyclohexyl)-2-[3-(1H-tetrazol-5-yl)-5-(4′-trifluoromethyl-biphenyl-2-ylmethoxy)-pyrazol-1-yl]-acetamide] | 0.057
